molecular target: Human thrombin (Homo sapiens (Human), UniProt P00734); assay: Thrombin protease activity inhibition assay (chromogenic substrate S-2238); assay type: biochemical; details: not given
Protocol: The thrombin activity reported herein (e.g., Table A) was obtained as follows. […] Thrombin was assayed in buffer containing 0.05 M Tris (pH 7.4), 0.015 M NaCl and 0.01% PEG-8000. The final concentration of enzyme used was 3 nM thrombin. […] All assays were performed in 96-well microtiter plates at room temperature (RT). […] Inhibitor IC50 values were determined by adding test compound as ten point, three-fold serial dilutions in buffer solution, as known in the art. The plate was read at 10 minutes after substrate addition. The IC50 was calculated by plotting the percent (%) inhibition against compound concentration and fitting the data to a constrained four parameter sigmoidal curve, as known in the art.

Compound | IC50 [nM]
Nc1cc(-c2ccc[nH]c2=O)n[nH]1 [Cmpd 1, 3-(5-amino-1H-pyrazol-3-yl)-1,2-dihydropyridin-2-one] | > 100000

same assay, conditions: 3 nM thrombin, 125 μM S-2238, 10 min pre-incubation, RT

Compound | IC50 [nM]
O=C(c1ccoc1)n1nc(-c2cccn(Cc3ccncc3)c2=O)cc1NCc1ccc(Cl)s1 [Cmpd 6, 3-(5-[(5-chlorothiophen-2-yl)methyl]amino-1-[(furan-3-yl)carbonyl]-1H-pyrazol-3-yl)-1-(pyridin-4-ylmethyl)-1,2-dihydropyridin-2-one] | < 100
CC(C)(C)C(=O)n1nc(-c2cccn(Cc3ccccc3Cl)c2=O)cc1NCc1ccc(Cl)s1 [Cmpd 27, 1-[(2-chlorophenyl)methyl]-3-(5-[(5-chlorothiophen-2-yl)methyl]amino-1-(2,2-dimethylpropanoyl)-1H-pyrazol-3-yl)-1,2-dihydropyridin-2-one] | < 100
COc1ccccc1C(=O)n1nc(-c2cccn(Cc3ccccc3Cl)c2=O)cc1NCc1ccc(Cl)s1 [Cmpd 28, 1-[(2-chlorophenyl)methyl]-3-(5-[(5-chlorothiophen-2-yl)methyl]amino-1-[(2-methoxyphenyl)carbonyl]-1H-pyrazol-3-yl)-1,2-dihydropyridin-2-one] | < 100
O=C(c1ccoc1)n1nc(-c2cccn(Cc3ccccc3Cl)c2=O)cc1NCc1ccc(Cl)s1 [Cmpd 29, 1-[(2-chlorophenyl)methyl]-3-(5-[(5-chlorothiophen-2-yl)methyl]amino-1-[(furan-3-yl)carbonyl]-1H-pyrazol-3-yl)-1,2-dihydropyridin-2-one] | < 100
O=c1c(-c2cc(NCc3ccc(Cl)s3)[nH]n2)cccn1Cc1ccccc1Cl [Cmpd 30, 1-[(2-chlorophenyl)methyl]-3-(5-[(5-chlorothiophen-2-yl)methyl]amino-1H-pyrazol-3-yl)-1,2-dihydropyridin-2-one] | 10000 to 100000
CC(C)(C)C(=O)n1nc(-c2cccn(Cc3cccc(Cl)c3)c2=O)cc1NCc1ccc(Cl)s1 [Cmpd 31, 1-[(3-chlorophenyl)methyl]-3-(5-[(5-chlorothiophen-2-yl)methyl]amino-1-(2,2-dimethylpropanoyl)-1H-pyrazol-3-yl)-1,2-dihydropyridin-2-one] | < 100
COc1ccccc1C(=O)n1nc(-c2cccn(Cc3cccc(Cl)c3)c2=O)cc1NCc1ccc(Cl)s1 [Cmpd 32, 1-[(3-chlorophenyl)methyl]-3-(5-[(5-chlorothiophen-2-yl)methyl]amino-1-[(2-methoxyphenyl)carbonyl]-1H-pyrazol-3-yl)-1,2-dihydropyridin-2-one] | < 100
O=C(c1ccoc1)n1nc(-c2cccn(Cc3cccc(Cl)c3)c2=O)cc1NCc1ccc(Cl)s1 [Cmpd 33, 1-[(3-chlorophenyl)methyl]-3-(5-[(5-chlorothiophen-2-yl)methyl]amino-1-[(furan-3-yl)carbonyl]-1H-pyrazol-3-yl)-1,2-dihydropyridin-2-one] | < 100
O=c1c(-c2cc(NCc3ccc(Cl)s3)[nH]n2)cccn1Cc1cccc(Cl)c1 [Cmpd 34, 1-[(3-chlorophenyl)methyl]-3-(5-[(5-chlorothiophen-2-yl)methyl]amino-1H-pyrazol-3-yl)-1,2-dihydropyridin-2-one] | 1000 to 10000
CC(C)(C)C(=O)n1nc(-c2cccn(Cc3ccc(Cl)cc3)c2=O)cc1NCc1ccc(Cl)s1 [Cmpd 35, 1-[(4-chlorophenyl)methyl]-3-(5-[(5-chlorothiophen-2-yl)methyl]amino-1-(2,2-dimethylpropanoyl)-1H-pyrazol-3-yl)-1,2-dihydropyridin-2-one] | < 100
COc1ccccc1C(=O)n1nc(-c2cccn(Cc3ccc(Cl)cc3)c2=O)cc1NCc1ccc(Cl)s1 [Cmpd 36, 1-[(4-chlorophenyl)methyl]-3-(5-[(5-chlorothiophen-2-yl)methyl]amino-1-[(2-methoxyphenyl)carbonyl]-1H-pyrazol-3-yl)-1,2-dihydropyridin-2-one] | < 100
O=C(c1ccoc1)n1nc(-c2cccn(Cc3ccc(Cl)cc3)c2=O)cc1NCc1ccc(Cl)s1 [Cmpd 37, 1-[(4-chlorophenyl)methyl]-3-(5-[(5-chlorothiophen-2-yl)methyl]amino-1-[(furan-3-yl)carbonyl]-1H-pyrazol-3-yl)-1,2-dihydropyridin-2-one] | < 100
O=c1c(-c2cc(NCc3ccc(Cl)s3)[nH]n2)cccn1Cc1ccc(Cl)cc1 [Cmpd 38, 1-[(4-chlorophenyl)methyl]-3-(5-[(5-chlorothiophen-2-yl)methyl]amino-1H-pyrazol-3-yl)-1,2-dihydropyridin-2-one] | > 100000
CC(C)(C)C(=O)n1nc(-c2cccn(Cc3ccc(Cl)s3)c2=O)cc1NCc1ccc(Cl)s1 [Cmpd 39, 1-[(5-chlorothiophen-2-yl)methyl]-3-(5-[(5-chlorothiophen-2-yl)methyl]amino-1-(2,2-dimethylpropanoyl)-1H-pyrazol-3-yl)-1,2-dihydropyridin-2-one] | < 100
COc1ccccc1C(=O)n1nc(-c2cccn(Cc3ccc(Cl)s3)c2=O)cc1NCc1ccc(Cl)s1 [Cmpd 40, 1-[(5-chlorothiophen-2-yl)methyl]-3-(5-[(5-chlorothiophen-2-yl)methyl]amino-1-[(2-methoxyphenyl)carbonyl]-1H-pyrazol-3-yl)-1,2-dihydropyridin-2-one] | < 100
O=C(c1ccoc1)n1nc(-c2cccn(Cc3ccc(Cl)s3)c2=O)cc1NCc1ccc(Cl)s1 [Cmpd 41, 1-[(5-chlorothiophen-2-yl)methyl]-3-(5-[(5-chlorothiophen-2-yl)methyl]amino-1-[(furan-3-yl)carbonyl]-1H-pyrazol-3-yl)-1,2-dihydropyridin-2-one] | < 100
O=c1c(-c2cc(NCc3ccc(Cl)s3)[nH]n2)cccn1Cc1ccc(Cl)s1 [Cmpd 42, 1-[(5-chlorothiophen-2-yl)methyl]-3-(5-[(5-chlorothiophen-2-yl)methyl]amino-1H-pyrazol-3-yl)-1,2-dihydropyridin-2-one] | > 100000
CC(C)(C)C(=O)n1nc(-c2cccn(Cc3ccccc3)c2=O)cc1NCc1ccc(Cl)s1 [Cmpd 43, 1-benzyl-3-(5-[(5-chlorothiophen-2-yl)methyl]amino-1-(2,2-dimethylpropanoyl)-1H-pyrazol-3-yl)-1,2-dihydropyridin-2-one] | < 100
COCC(C)(C)C(=O)n1nc(-c2cccn(Cc3ccccc3)c2=O)cc1NCc1ccc(Cl)s1 [Cmpd 44, 1-benzyl-3-(5-[(5-chlorothiophen-2-yl)methyl]amino-1-(3-methoxy-2,2-dimethylpropanoyl)-1H-pyrazol-3-yl)-1,2-dihydropyridin-2-one] | < 100
O=C(c1cccc2c1OCCO2)n1nc(-c2cccn(Cc3ccccc3)c2=O)cc1NCc1ccc(Cl)s1 [Cmpd 45, 1-benzyl-3-(5-[(5-chlorothiophen-2-yl)methyl]amino-1-[(2,3-dihydro-1,4-benzodioxin-5-yl)carbonyl]-1H-pyrazol-3-yl)-1,2-dihydropyridin-2-one] | < 100
COc1ccccc1C(=O)n1nc(-c2cccn(Cc3ccccc3)c2=O)cc1NCc1ccc(Cl)s1 [Cmpd 47, 1-benzyl-3-(5-[(5-chlorothiophen-2-yl)methyl]amino-1-[(2-methoxyphenyl)carbonyl]-1H-pyrazol-3-yl)-1,2-dihydropyridin-2-one] | < 100
O=c1c(-c2cc(NCc3ccc(Cl)s3)[nH]n2)cccn1Cc1ccccc1 [Cmpd 54, 1-benzyl-3-(5-[(5-chlorothiophen-2-yl)methyl]amino-1H-pyrazol-3-yl)-1,2-dihydropyridin-2-one] | 1000 to 10000
